Assay results from patent US20240254135A1, “POLYPHENOL COMPOUNDS” (Epirium Bio Inc., priority 2022, published 2024).

Test: Pharmacokinetics: quantitative determination in mice plasma (LCMS)
Format: in vivo, C57BL/6 Mice
Conditions: C57BL/6, mouse, 10 mg/kg PO single dose, 10% NMP vehicle; for AUC(0-t): read-out: AUC0-4 h
Experimental: C57BL/6 Mice, Age 7-9 weeks, body weight range 20-25 g were used. The mice were fasted overnight. Mice were dosed once a day for a single day at 10 mg/kg, 10 mg/kg. 6 time-points were used for whole blood. 10% NMP was used as a vehicle. 9 animals were used per treatment, with three groups of three animals each. Group 1 had time points at 15 and 60 minutes, Group 2 had time points at 30 and 120 minutes, and Group 3 had time points at 90 and 240 minutes. An Oral (PO) route was used. Plasma and brain samples were collected (brain sample collected at terminal time point). Plasma was collected through the centrifugation of whole blood at 10,000 rpm for 10 minutes at 4° C. Samples were stored at −80° C. until processing.
1.00 mg/mL in 100% MeOH PP vials (prepared at RT yellow light) at 2-8° C. were used as stock solution. 12.22-50000 ng/ml using 80% MeOH PP vials (prepared at RT yellow light) at 2-8° C. were used as working solution. 0.98-4000 ng/ml (prepared at RT yellow light) was used for the curve range. For Compounds 75b and 78a, 1.00 mg/mL of Compound 79 in 100% methanol Ria vials (Prepared at RT yellow light) was used as IS stock solution, and 60 ng/ml of Compound 79 in 80% methanol (Prepared at RT yellow light) was used as IS working solution. For Compound 76b, 1.00 mg/mL of Compound 44 in 100% methanol Ria vials (Prepared at RT yellow light) was used as IS stock solution, and 60 ng/ml of Compound 44 in 80% methanol (Prepared at RT yellow light) was used as IS working solution. A linear, 1/x2 fit type was used. The injection volume was 15 μL. Mobile Phase A was 0.1% Formic Acid in water at room temperature. Mobile Phase B was 100% methanol at room temperature. R0 wash solution was 80% methanol at room temperature. R^3 wash solution was IPA/MeOH/ACN/water (1:1:1:1) at room temperature. The column was Agilent Eclipse 50*2.1 mm 1.8 μm and the instrument was Shimadzu LC-40 UPLC and AB Sciez 6500+ with LCMS002.
For Compound 75b, using a pipette with Methanol-rinsed pipette tips, 25 μL of each sample was aliquoted (calibration curve sample, QC samples and blank matrix) to labeled 12×75-mm glass tubes. Using Methanol-rinsed pipette tips, 5.0 μL of IS of conc. 60 ng (Compound 79) was aliquoted to each standards and samples except Blank. All tubes were mixed on a multi-tube vortex for approximately 30 seconds. 50 μL of 10 mM Sodium bicarbonate were added. 1 ml of Ethyl Acetate was added. All tubes were mixed on a multi-tube vortex for approximately 5 minutes then centrifuged for 10 min at 5,000 rpm, 4° C. The sample was kept in methanol containing dry ice for a few seconds to freeze the Aqueous layer (flash freeze method). The upper organic layer was poured from the frozen tubes into the labeled 12×75-mm glass tubes then evaporated to dryness under nitrogen using Liquid Evaporator (30° C., ˜15 psi, ˜10 mins). 200 μl of reconstitution solution (0.1% Acetic acid:MeOH (60:40 v/v) were added into each tube. Samples were vortexed for 30 seconds then transferred to amber glass injection vials for injection.
For Compounds 76b and 78a, using a pipette, 25 μL of each sample were aliquoted (calibration curve sample, QC samples and blank matrix) to labeled 1.5 ml eppendorfs. Using a pipette, 5.0 μL of IS of conc. 100 ng (Cocktail IS) was aliquoted to each standards and samples except Blank. All tubes were mixed on a multi-tube vortex for approximately 30 seconds. 1 ml of tert-butyl methyl ether (TBME) was added. All tubes were mixed on a multi-tube vortex for approximately 5 minutes then centrifuged for 10 min at 10,000 rpm, 4° C. The sample was kept in methanol containing dry ice for few seconds to freeze the Aqueous layer (flash freeze method). The upper organic layer was poured from the frozen tubes into the labeled 12×75-mm rial vials then vaporated to dryness under nitrogen using Liquid Evaporator (30° C., −15 psi, 10 mins). 200 μl of reconstitution solution (10 mM Ammonium Formate: MeOH) (40:60 v/v) was added into each tube. […]

Row | Cmax [µg/mL] | Tmax [min] | AUC(0-t) [µg·h/mL] | SMILES
1 | 0.138 | 90 | 0.133 | COc1cc(C2Oc3ccccc3CC2O)ccc1F (single isomer, unassigned) [Compound 75b, 2-(4-fluoro-3-methoxyphenyl)chroman-3-ol]
2 | 0.0893 | 15 | 0.0457 | Oc1cc(O)c2c(c1)OC(c1ccc(O)c(F)c1)C(O)C2 (single isomer, unassigned) [Compound 76b, 2-(3-fluoro-4-hydroxyphenyl)chromane-3,5,7-triol]
3 | 0.0498 | 15 | 0.0595 | Oc1cc(O)c2c(c1)OC(c1ccccc1)C(O)C2 (single isomer, unassigned) [Compound 78a, 2-phenylchromane-3,5,7-triol]
